Laboratory results: US7510845B2, “Assay employing G protein-coupled receptor expressed in dorsal root ganglia” (California Institute of Technology, priority 2000, dated 2009)
pEC50: −log10 of the molar value. “Also recorded” adds a separate entry of the source. Each block holds one compound with its values, some of them ahead of it. Ends that are not written are not given here.

Tests used:
[1] = target: T1, MRGA1 (Mus musculus, UniProt Q91WW5); assay: Intracellular Ca2+ release assay (Fura-2), MRGA1-GFP in HEK-Gα15 cells; type: cell-based; settings: for Calcium response of MRGA1-expressing cells to ligand: HEK-Gα15 cells, ligand 1 μM; for Activation of MrgA1 in dose-response experiments: HEK cells expressing Gα15
T1 construct: cDNAs encoding eight full-length variants of Mrg receptors (mMrgA1-8) are provided; expressed in transfected cells; host or cells: HEK293-Galpha15 (A1) or HEK293 lacking Galpha15 (A4), transient transfection with FuGENE 6
T1 sequence (Q91WW5 1-304): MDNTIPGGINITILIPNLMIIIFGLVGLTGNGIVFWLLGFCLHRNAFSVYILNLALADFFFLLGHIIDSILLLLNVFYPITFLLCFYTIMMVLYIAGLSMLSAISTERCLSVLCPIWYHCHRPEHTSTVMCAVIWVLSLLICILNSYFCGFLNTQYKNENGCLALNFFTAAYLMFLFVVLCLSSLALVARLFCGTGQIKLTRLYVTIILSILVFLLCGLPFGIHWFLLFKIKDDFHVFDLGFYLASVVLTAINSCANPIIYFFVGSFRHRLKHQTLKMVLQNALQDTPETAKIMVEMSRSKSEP
Procedure: (§1) To identify ligands for the Mrg receptors, selected MrgA genes were tested in a calcium release assay. MrgA genes, including MrgA1 and MrgA4, were cloned into a eukaryotic expression vector and transfected into human embryonic kidney (HEK) 293 cells. HEK-293 cells were obtained from the ATCC and cultured in DMEM supplemented with 10% fetal bovine serum. An HEK293-Gα15 cell line stably expressing Gα15 was provided by Aurora Biosciences Corporation and grown on Matrigel™ (growth factor reduced Matrigel, Becton Dickinson, diluted 1:200 with serum-free DMEM)-coated flasks and maintained at 37° C. in DMEM (GibcoBRL) supplemented with 10% heat-inactivated fetal bovine serum, 2 mM L-glutamine, 0.1 mM non-essential amino acids, 1 mM sodium pyruvate, 25 mM HEPES and 3 μg/ml blastcidin-S. For transfection, cells were seeded on Matrigel-coated 35 mm glass-bottom dishes (Bioptech Inc., Butler, Pa.). After 16-24 hr, cells were transfected using FuGENE 6 (Roche).
(§2) To increase the sensitivity of the calcium release assay, in some experiments the MRGA-GFP fusion proteins were expressed in HEK 293 cells modified to express Gα15, which couples GPCRs to a signal transduction pathway leading to the release of intracellular free Ca^2+ (Offermann and Simon J Biol Chem 270: 15175-80 (1995)). This calcium release can be monitored ratiometrically using Fura-2 as a fluorescent indicator dye (Tsien et al. Cell Calcium 6: 145-57 (1985)) (FIGS. 11A-C). This heterologous expression system has been previously used to identify ligands for taste receptors (Chandrashekar et al. Cell 100: 703-11 (2000)).
(§3) Briefly, transfected cells were washed once in Hank's balanced salt solution with 11 mM D-glucose and 10 mM HEPES, pH 7.4 (assay buffer) and loaded with 2 μM Fura-2 AM (Molecular Probes) at room temperature for 90 min, with rotation. Loaded cells were washed twice with assay buffer and placed on a micro-perfusion chamber (Bioptech). The chamber was mounted on top of a Olympus IMT2 inverted microscope, and imaged with an Olympus DPlanApo 40× oil immersion objective lens. Samples were illuminated by a 75 W xenon bulb, and a computer-controlled filter changer (Lambda-10; Shutter Instruments) was used to switch the excitation wavelength. A cooled CCD camera (Photometric) was used in detecting fluorescence. GFP-positive cells within a field were identified using an excitation wavelength of 400 nm, a dichroic 505 nm long-pass filter and an emitter bandpass of 535 nm (Chroma Technology). In the same field, calcium measurements were performed at an excitation wavelength of 340 nm and 380 nm, and an emission wavelength of 510 nm. Agonists were diluted in assay buffer and solution changes accomplished by micro-perfusion pump (Bioptech). Fura-2 fluorescence signals (340 nm, 380 nm and the 340/380 ratio) originating from GFP-positive cells were continuously monitored at 0.4- or 1-second intervals and collected using Axon Imaging Workbench 4.0 software (Axon). Instrument calibration was carried out with standard calcium solutions (Molecular probes) in glass bottom dishes (MatTek Corp.).

[2] = target: T1, MRGA1; assay: Intracellular Ca2+ release assay, MRGA1 in HEK cells lacking Gα15; type: cell-based; settings: ligand 1 μM
Procedure: as §1, with “(Roche). Transfection efficiencies were estimated by visualization of GFP fused to the C-terminus of MrgA1 and A4, and were typically >60%. Fusing GFP to the C-termini of the MrgA coding sequences additionally allowed for visual confirmation of the intracellular distribution of the receptors and their membrane integration in the transfected cells (FIG. 11D).” for “(Roche).”
as §3, with “Corp.). […]” for “Corp.).”

[3] = target: T2, MRGA4 (Mus musculus, UniProt Q91WW2, A204G); assay: Intracellular Ca2+ release assay, MRGA4 in HEK cells lacking Gα15; type: cell-based; settings: ligand 1 μM
T2 construct: cDNAs encoding eight full-length variants of Mrg receptors (mMrgA1-8) are provided; expressed in transfected cells; host or cells: HEK293-Galpha15 (A2) or HEK293 lacking Galpha15 (A5), transient transfection with FuGENE 6
T2 sequence (Q91WW2 9-313 A204G limits assumed): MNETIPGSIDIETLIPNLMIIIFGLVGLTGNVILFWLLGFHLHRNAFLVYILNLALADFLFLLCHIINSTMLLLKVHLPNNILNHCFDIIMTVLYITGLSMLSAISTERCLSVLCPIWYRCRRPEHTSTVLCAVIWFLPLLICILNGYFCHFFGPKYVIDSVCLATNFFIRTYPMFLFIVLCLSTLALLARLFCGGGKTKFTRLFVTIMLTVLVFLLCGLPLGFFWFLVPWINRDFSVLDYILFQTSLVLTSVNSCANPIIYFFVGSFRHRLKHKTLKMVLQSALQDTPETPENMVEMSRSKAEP
Procedure: as §1, with “(Roche). Transfection efficiencies were estimated by visualization of GFP fused to the C-terminus of MrgA1 and A4, and were typically >60%. Fusing GFP to the C-termini of the MrgA coding sequences additionally allowed for visual confirmation of the intracellular distribution of the receptors and their membrane integration in the transfected cells (FIG. 11D).” for “(Roche).”
as §3, with “Corp.). […]” for “Corp.).”

[4] = test system: chronic pain models, including neuropathic pain; settings: intrathecal injection; several chronic pain models; cited from earlier work
[5] = test system: MAS1; assay: Intracellular Ca2+ release assay (Fura-2), MAS1 in HEK-Gα15 cells; type: cell-based; settings: for Activation of MAS1: HEK-Gα15 cells
[6] = target: T2, MRGA4; assay: Intracellular Ca2+ release assay (Fura-2), MRGA4-GFP in HEK-Gα15 cells; type: cell-based; settings: HEK cells expressing Gα15
Procedure: To identify ligands for the Mrg receptors, selected MrgA genes were tested in a calcium release assay. MrgA genes, including MrgA1 and MrgA4, were cloned into a eukaryotic expression vector and transfected into human embryonic kidney (HEK) 293 cells. HEK-293 cells were obtained from the ATCC and cultured in DMEM supplemented with 10% fetal bovine serum. […]
as §2, with “This heterologous expression system has been previously used to identify ligands for taste receptors (Chandrashekar et al. Cell 100: 703-11 (2000)).” left out
Briefly, transfected cells were washed once in Hank's balanced salt solution with 11 mM D-glucose and 10 mM HEPES, pH 7.4 (assay buffer) and loaded with 2 μM Fura-2 AM (Molecular Probes) at room temperature for 90 min, with rotation. […] A cooled CCD camera (Photometric) was used in detecting fluorescence. […] Fura-2 fluorescence signals (340 nm, 380 nm and the 340/380 ratio) originating from GFP-positive cells were continuously monitored at 0.4- or 1-second intervals and collected using Axon Imaging Workbench 4.0 software (Axon). […]

Compound: CCCCC[C@H](O)/C=C/[C@H]1[C@H](O)CC(=O)[C@@H]1CCCCCCC(=O)O [Prostaglandin-E1]
Calcium response of MRGA1-expressing cells to ligand [1]: only very weakly activated

Compound: AGEGLNSQFWSLAAPQRF-NH2 [NPAF]
Calcium response of MRGA1-expressing cells to ligand [2]: no response
Activation of MrgA1 in dose-response experiments [1]: much less effective
Calcium response of MRGA1-expressing cells to ligand [1]: significantly lower
Calcium response of MRGA4-expressing cells to ligand [3]: respond
Antinociceptive effect [4]: long-lasting antinociceptive effects
pEC50 ([5]; HEK cells, RF-amide ligands, read-out: Relative efficacy of activation of MAS1): < 6.00
Activation of MAS1 [5]: did not respond well

Compound: Angiotensin I: peptide hormone previously reported to activate MAS1 (DRVYIHPFHL; Angiotensin-1; UniProt P01019 25-34, looked up)
Activation of MAS1 [5]: No response was detected

Compound: Angiotensin II: peptide hormone previously reported to activate MAS1 (DRVYIHPF; Angiotensin-2; UniProt P01019 25-32, looked up)
Activation of MAS1 [5]: No response was detected

Compound: NPY: neuropeptide
Calcium response of MRGA1-expressing cells to ligand [2]: lost completely
Calcium response of MRGA1-expressing cells to ligand [1]: some level of activation; also recorded: strongest responses
Calcium response of MRGA4-expressing cells to ligand [3]: lost completely

Compound: RFRP-1: RFamide ligand produced from a different precursor (MPHSFANLPLRF; ends and bridges not checked; UniProt Q9HCQ7 81-92, looked up)
Activation of MrgA1 in dose-response experiments [1]: Neither receptor showed strong activation
Activation of MrgA4 in dose-response experiments [6]: Neither receptor showed strong activation

Compound: RFRP-2: RFamide ligand produced from a different precursor (SAGATANLPLRS; ends and bridges not checked; UniProt Q9HCQ7 101-112, looked up)
Activation of MrgA1 in dose-response experiments [1]: Neither receptor showed strong activation
Activation of MrgA4 in dose-response experiments [6]: Neither receptor showed strong activation

Compound: neurokinin B: peptide hormone
Calcium response of MRGA1-expressing cells to ligand [1]: did not activate

Compound: schistoFLRF: RFamide ligand, SEQ ID NO: 115 (PDVDHVFLRF; ends and bridges not checked)
Calcium response of MRGA1-expressing cells to ligand [1]: weakly activated

Second part, led by results:

Calcium response of MRGA1-expressing cells to ligand [1]: only very weakly activated
Compound: CCCCC/C=C\C/C=C\C/C=C\C/C=C\CCCC(=O)O [Arachidonic Acid]

Calcium response of MRGA1-expressing cells to ligand [2]: considerably diminished
Calcium response of MRGA4-expressing cells to ligand [3]: considerably diminished
Compound: CGRP-II: neuropeptide, calcitonin gene-related peptide
Calcium response of MRGA1-expressing cells to ligand [1]: some level of activation; also recorded: strongest responses

Calcium response of MRGA1-expressing cells to ligand [1]: most efficient responses
Calcium response of MRGA1-expressing cells to ligand ([1]; listed as FMRF): strongest responses
Compound: Phe-Met-Arg-Phe-amide [FMRFamide]

Calcium response of MRGA1-expressing cells to ligand [2]: considerably diminished
Calcium response of MRGA4-expressing cells to ligand [3]: considerably diminished
Compound: SYSMEHFRWGKPVGKKRRPVKVYPNGAEDESAEAFPLEF [ACTH]
Calcium response of MRGA1-expressing cells to ligand [1]: some level of activation; also recorded: strongest responses
Activation of MAS1 [5]: Nor did MAS1 respond

Calcium response of MRGA1-expressing cells to ligand [1]: did not activate
Compound: neurokinin A: peptide hormone
